Laboratory results: article PMC4698308, “A new amino acid substitution (Ala-205-Phe) in acetolactate synthase (ALS) confers broad spectrum resistance to ALS-inhibiting herbicides” (Planta, 2015)

Columns and labels:
[1] = biological target: T1, recombinant Arabidopsis thaliana ALS wild-type enzyme (WT—sensitive) (Arabidopsis thaliana, UniProt P17597); experiment: biochemical
T1 construct: Protein constructs contained an 85 amino acid N-terminal deletion (chloroplast transit peptide); Hexa-histidine tag (N); made in house
T1 sequence (P17597 86-670): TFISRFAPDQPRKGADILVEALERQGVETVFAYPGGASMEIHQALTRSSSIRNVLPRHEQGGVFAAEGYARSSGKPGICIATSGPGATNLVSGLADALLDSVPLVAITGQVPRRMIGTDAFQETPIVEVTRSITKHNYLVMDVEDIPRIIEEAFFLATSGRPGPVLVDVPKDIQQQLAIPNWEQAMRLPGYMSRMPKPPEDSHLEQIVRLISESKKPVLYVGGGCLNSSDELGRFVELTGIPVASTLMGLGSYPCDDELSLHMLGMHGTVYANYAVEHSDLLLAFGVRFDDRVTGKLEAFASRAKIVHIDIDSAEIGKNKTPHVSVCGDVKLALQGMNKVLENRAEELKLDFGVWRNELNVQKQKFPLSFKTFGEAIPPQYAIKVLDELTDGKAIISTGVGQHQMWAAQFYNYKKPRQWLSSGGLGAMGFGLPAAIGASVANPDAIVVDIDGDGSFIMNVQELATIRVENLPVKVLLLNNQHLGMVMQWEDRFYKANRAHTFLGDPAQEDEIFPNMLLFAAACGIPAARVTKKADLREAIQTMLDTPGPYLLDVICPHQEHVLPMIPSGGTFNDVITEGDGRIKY
Description: (§1) Effects of SNPs identified in sequencing analysis on ALS activity were studied using A. thaliana. The ALS gene from A. thaliana and derivatives thereof were de novo synthesized and subcloned into pET-24d(+) (Life Technologies. Grand Island, NY, USA) using NcoI and XhoI restriction sites. Protein constructs contained an 85 amino acid N-terminal deletion (chloroplast transit peptide) and the addition of an N-terminal Hexa-histidine tag to facilitate purification.
(§2) Lysis was performed by at least two passes through a fluidizer, followed by centrifuging at 80000×g for 30 min at 4 °C. […] Fractions containing ALS protein were pooled and stored at −20 °C.
(§3) Inhibitors, purchased from Sigma as Pestanal standards (Sigma-Aldrich, Deisenhofen, Germany), were dissolved in DMSO and added to the reaction mixture. Inhibitors evaluated included imidazolinone, sulfonylurea, triazolopyrimidines, sulfonylamino-carbonyl- triazolinones, and pyrimidinyl (thio) benzoate herbicides. The reaction mixture was incubated at 30 °C for 60 min and stopped with 70 µl of H2SO4 (3 M). The reaction was then heated to 56 °C for 15 min to convert acetolactate into acetoin. […] For each inhibitor, resistance factors were calculated by dividing IC50 values for mutant and sensitive ALS.

[2] = tested on: recombinant Arabidopsis thaliana ALS variant A205F; format: biochemical; settings: IC50 mutant divided by IC50 sensitive ALS; max inhibitor concentration 1.00 × 10^−04 M
Description: as §1, §2, §3

[3] = tested on: recombinant Arabidopsis thaliana ALS variant A205V; format: biochemical; settings: IC50 mutant divided by IC50 sensitive ALS; max inhibitor concentration 1.00 × 10^−04 M
Description: as §1, §2, §3

[4] = tested on: recombinant Arabidopsis thaliana ALS variant W574L; format: biochemical; settings: IC50 mutant divided by IC50 sensitive ALS; max inhibitor concentration 1.00 × 10^−04 M
Description: as §1, §2, §3

[5] = tested on: annual bluegrass (Poa annua L.); experiment: Whole plant non-target site resistance experiment with P450 inhibitors malathion or PBO (control 21 days after treatment); format: in vivo; settings: for Annual bluegrass control S: susceptible (S)
Description: Additional experiments were conducted during March–April 2015 to determine if non-target site based mechanisms conferred resistance to ALS inhibitors in our annual bluegrass population, POAAN-R3. Plants (RP6, RP7, and S) were cultured in plastic conical containers as previously described and allowed to acclimate to the glasshouse for 18 days prior to initiating two experiments.
In the first experiment, resistant (RP6, RP7) and susceptible (S) plants were treated with foramsulfuron at 29 g ha^−1, trifloxysulfuron (Monument. Syngenta Professional Products. Greensboro, NC, USA) at 27.8 g ha^−1, imazaquin (Image. BASF Corporation. Research Triangle Park, NC) at 27.5 g ha^−1, or bispyribac-sodium (Velocity. Valent USA Corporation. Walnut Creek, CA, USA) at 70 g ha^−1. All herbicides were applied alone or in combination with either malathion (Spectrum Group. St. Louis, MO, USA) at 1000 g ha^−1 or piperonyl butoxide (Sigma Aldrich. St. Louis, MO, USA) at 2100 g ha^−1. Malathion and piperonyl butoxide (PBO) inhibit cytochrome P450 monooxygenases involved in metabolism of ALS inhibiting herbicides and are commonly used at the application rates tested herein to evaluate non-target site based resistance mechanisms in weeds (Burnet et al. [1994]; Christopher et al. [1992]; Yu and Powles [2014b]; Rao et al. [1995]). All herbicides were mixed in water carrier and included non-ionic surfactant at 0.25 % v/v. Malathion and PBO were mixed with methanol and de-ionized water (50:50) and applied 60 min prior to herbicide application using a previously described enclosed spray chamber on 13 February 2015.
Annual bluegrass control was visually assessed on a 0 (i.e., no control) to 100 % (i.e., complete kill) scale relative to the non-treated 21 days after treatment. After all control data had been collected, aboveground biomass was harvested from each plastic conical container at the soil line using scissors, dried at 100 °C, and weighed. Treatments were arranged as a 3 × 5 × 3 factorial with three plant selections (RP6, RP7, S), five herbicides (foramsulfuron, trifloxysulfuron, imazaquin, bispyribac-sodium, non-treated) and three P450 inhibitor treatments (malathion, PBO, non-treated) in a completely randomized design with four replications and repeated in separate glasshouses during February 2015.

## CC(C)C1(C)N=C(c2nc3ccccc3cc2C(=O)O)NC1=O (stereo not shown) [Imazaquin]
[1]
  IC50: 1550 nM
[2]
  Resistance factor A205F: 19
[3]
  Resistance factor A205V: 36
[4]
  Resistance factor W574L: 65
[5]; RP6, herbicide alone, foramsulfuron 29, trifloxysulfuron 27.8, imazaquin 27.5, bispyribac-sodium 70 g ha^−1
  Annual bluegrass control RP6: 36%
[5]; RP6, herbicide with PBO 2100 g ha^−1 applied 60 min prior
  Annual bluegrass control RP6: 24%
[5]; RP6, herbicide with malathion 1000 g ha^−1 applied 60 min prior
  Annual bluegrass control RP6: 32%
[5]; RP7, herbicide alone, foramsulfuron 29, trifloxysulfuron 27.8, imazaquin 27.5, bispyribac-sodium 70 g ha^−1
  Annual bluegrass control RP7: 11%
[5]; RP7, herbicide with PBO 2100 g ha^−1 applied 60 min prior
  Annual bluegrass control RP7: 9%
[5]; RP7, herbicide with malathion 1000 g ha^−1 applied 60 min prior
  Annual bluegrass control RP7: 8%
[5]; herbicide alone, foramsulfuron 29, trifloxysulfuron 27.8, imazaquin 27.5, bispyribac-sodium 70 g ha^−1
  Annual bluegrass control S: 53%
[5]; herbicide with PBO 2100 g ha^−1 applied 60 min prior
  Annual bluegrass control S: 71%
[5]; herbicide with malathion 1000 g ha^−1 applied 60 min prior
  Annual bluegrass control S: 64%
